Measurements: US20130324461A1, “METHODS AND COMPOSITIONS FOR PREVENTING OR TREATING OBESITY” (priority 2010, published 2013)

How the values were obtained:
Type in all cases: in vivo
[1] = test system: serum leptin; experiment: Serum leptin levels by ELISA after A2AR agonist injection (Example 4, FIG. 4); conditions: 8 week old female C57BL/6 mice, 0.5 mg/kg s.c., after 1 and 2 h, p<0.05
Description: To elucidate the mechanism by which A2AR agonists reduce weight gain, serum leptin levels were quantified in mice treated with an A2AR agonist. 8 week old Female C57BL/6 mice received subcutaneous injection of the A2AR agonist CGS21680 (0.5 mg/kg). After 1 and 2 h, serum leptin levels were measured by ELISA. […] The data shown in FIG. 4 represent average±SD (n=4). The statistical significance was calculated by Student's t-test: *, p<0.05.

[2] = Body weight of mice on high-fat diet, treated or untreated with A2AR agonist CGS21680 (Example 3, FIG. 3 left panel)
Description: Mice were untreated or treated with the A2AR agonist CGS21680 (Tocris) at different time points. CGS21680 (Tocris) was injected s.c. at a dose of 0.5 mg/kg daily either from week 9 to week 13, from week 13 to week 19, or from week 9 to week 19, as indicated in the FIG. 3 legends. Male mice (8 mice per group) were fed a high-fat diet (where 60% of calories are derived from fat) or low-fat diet (where 10% of calories are derived from fat) and the weight of the mice was measured. Special diets were obtained from Research Diets (New Brunswick, N.J.). One group of mice received no A2AR agonist at all (represented by diamonds in the graphs of FIG. 4); another group of mice was received CGS21680 only from week 9 to 13 (triangles); another group of mice received CGS21680 only from week 13 to 19 (squares); another group of mice received CGS21680 from week 9 to 19 (crosses). […] Some mice in the group that received no A2AR agonist at all (diamonds) almost doubled their weight between weeks 9 and 19, reaching up to 50 g total weight. […] Mice that were not injected from week 9 to 13 (squares) reached almost 40 g of weight by week 13.

[3] = Body weight of mice on low-fat diet, treated or untreated with A2AR agonist CGS21680 (Example 3, FIG. 3 right panel)
Description: Mice were untreated or treated with the A2AR agonist CGS21680 (Tocris) at different time points. CGS21680 (Tocris) was injected s.c. at a dose of 0.5 mg/kg daily either from week 9 to week 13, from week 13 to week 19, or from week 9 to week 19, as indicated in the FIG. 3 legends. Male mice (8 mice per group) were fed a high-fat diet (where 60% of calories are derived from fat) or low-fat diet (where 10% of calories are derived from fat) and the weight of the mice was measured. Special diets were obtained from Research Diets (New Brunswick, N.J.). One group of mice received no A2AR agonist at all (represented by diamonds in the graphs of FIG. 4); another group of mice was received CGS21680 only from week 9 to 13 (triangles); another group of mice received CGS21680 only from week 13 to 19 (squares); another group of mice received CGS21680 from week 9 to 19 (crosses). […] Mice in the group that received no A2AR agonist at all (diamonds) gained a small amount of weight reaching up to ˜35 g by week 19. This is much less than the weight reached by mice on the high-fat diet (˜50 g). […] Mice that were not injected with from week 9 to 13 (squares) did gain weight by week 13.

[4] = Weight gain of mice on high-fat diet treated with various A2AR agonists (Example 5, FIG. 5); conditions: male C57BL/6 mice
Description: Mice receiving a high-fat diet were treated with the A2AR agonists 2-[4-(2-aminoethylaminocarbonylethyl)phenylethylamino]-5′-N-ethylcarboxamidoadenosine (APEC) bistrifluoroacetic acid or 2 5′-N-ethylcarboxamidoadenosine (NECA). Male C57BL/6 mice (n=5) were provided a high-fat diet beginning at day 0. Also beginning on day 0, the mice were treated with daily subcutaneous injection of A2AR agonist. APEC was administered at 0.25 mg/kg/day, and NECA at 0.02 mg/kg/day.

CCNC(=O)[C@H]1O[C@@H](n2cnc3c(N)nc(NCCc4ccc(CCC(=O)O)cc4)nc32)[C@H](O)[C@@H]1O [CGS21680, 3-[4-[2-[[6-amino-9-[(2R,3R,4S,5S)-5-(ethylcarbamoyl)-3,4-dihydroxy-oxolan-2-yl]purin-2-yl]amino]ethyl]phenyl]propanoic acid]
serum leptin levels [1]: significantly increased | weight gain ([2]; male mice, high-fat diet (60% of calories from fat), 0.5 mg/kg s.c. daily from week 9 to week 19): gained little or no weight | weight gain between weeks 9 and 13 ([2]; male mice, high-fat diet, 0.5 mg/kg s.c. daily only from week 9 to 13): gained essentially no weight | further weight gain after start of injections ([2]; male mice, high-fat diet, 0.5 mg/kg s.c. daily only from week 13 to 19): Essentially no further weight gain | body weight gain ([2]; mice treated continuously (week 9 to 19), regardless of high-fat or low-fat diet): minimal | weight gain ([3]; male mice, low-fat diet (10% of calories from fat), 0.5 mg/kg s.c. daily from week 9 to week 19): gained very little weight | weight gain until week 13 ([3]; male mice, low-fat diet, 0.5 mg/kg s.c. daily only from week 9 to 13): gained essentially no weight | further weight gain after start of injections ([3]; male mice, low-fat diet, 0.5 mg/kg s.c. daily only from week 13 to 19): essentially no more weight gain | effect on weight gain (overall statement) ([3]; mice on low fat diet, 0.5 mg/kg s.c. daily): prevented or limited weight gain

CCNC(=O)[C@H]1O[C@@H](n2cnc3c(N)ncnc32)[C@H](O)[C@@H]1O [NECA, 5′-N-ethylcarboxamidoadenosine]
weight gain compared to the control group ([4]; high-fat diet from day 0, daily s.c. 0.02 mg/kg/day): dramatic reduction in weight gain

CCNC(=O)[C@H]1O[C@@H](n2cnc3c(N)nc(NCCc4ccc(CCC(=O)NCCN)cc4)nc32)[C@H](O)[C@@H]1O [APEC, 2-[4-(2-aminoethylaminocarbonylethyl)phenylethylamino]-5′-N-ethylcarboxamidoadenosine]
weight gain compared to the control group ([4]; high-fat diet from day 0, daily s.c. 0.25 mg/kg/day): dramatic reduction in weight gain
